Assay results from ChEMBL document CHEMBL3603774, “Novel 5-functionalized-pyrazoles: Synthesis, characterization and pharmacological screening” (Bioorg Med Chem Lett, 2015).
Values after ≈ are worked out from the molar mass of the structure shown.

Assays:
Alpha amylase = molecular target: T1, Alpha amylase (Homo sapiens, UniProt P0DUB6); experiment: Inhibition of alpha-amylase (unknown origin) using starch as substrate after 30 mins by spectrophotometer analysis
T1 sequence (P0DUB6 whole entry): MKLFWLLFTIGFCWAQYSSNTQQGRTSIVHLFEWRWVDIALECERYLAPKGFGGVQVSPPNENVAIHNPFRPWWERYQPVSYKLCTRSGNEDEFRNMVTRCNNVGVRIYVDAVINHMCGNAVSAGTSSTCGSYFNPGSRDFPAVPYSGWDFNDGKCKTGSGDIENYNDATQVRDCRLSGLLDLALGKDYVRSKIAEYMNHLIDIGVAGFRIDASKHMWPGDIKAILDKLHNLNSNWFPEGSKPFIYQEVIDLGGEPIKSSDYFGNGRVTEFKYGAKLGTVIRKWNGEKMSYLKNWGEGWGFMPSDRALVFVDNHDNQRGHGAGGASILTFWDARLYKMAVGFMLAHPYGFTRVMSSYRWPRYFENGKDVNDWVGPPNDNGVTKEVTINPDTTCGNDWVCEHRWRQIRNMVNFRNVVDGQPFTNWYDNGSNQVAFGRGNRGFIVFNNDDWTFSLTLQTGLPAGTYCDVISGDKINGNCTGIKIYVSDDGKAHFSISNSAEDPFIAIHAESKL

Staphylococcus aureus [1] = experiment: Antibacterial activity against Staphylococcus aureus MTCC 96 assessed as concentration required to completely destroy test microorganisms after 24 hrs; type: functional; conditions: MTCC 96, 24 h
Klebsiella pneumoniae [2] = experiment: Antibacterial activity against Klebsiella pneumoniae MTCC 3384 at 100 ug/ml after 24 hrs by disc diffusion method; type: functional; conditions: MTCC 3384, 24 h, read-out: IZ
Staphylococcus aureus [3] = experiment: Antibacterial activity against Staphylococcus aureus MTCC 96 after 24 hrs by microdilution method; type: functional; conditions: MTCC 96, 24 h
Klebsiella pneumoniae [4] = experiment: Antibacterial activity against Klebsiella pneumoniae MTCC 3384 at 50 ug/ml after 24 hrs by disc diffusion method; type: functional; conditions: MTCC 3384, 24 h, read-out: IZ
Klebsiella pneumoniae [5] = experiment: Antibacterial activity against Klebsiella pneumoniae MTCC 3384 assessed as concentration required to completely destroy test microorganisms after 24 hrs; type: functional; conditions: MTCC 3384, 24 h
[6] = Inhibition of alpha-glucosidase (unknown origin) using p-nitrophenol glycoside as substrate after 30 mins by colorimetric analysis; design: species or system Homo sapiens
Aspergillus niger [7] = experiment: Antifungal activity against Aspergillus niger MTCC 281 at 50 ug/ml after 24 hrs by disc diffusion method; type: functional; conditions: MTCC 281, 24 h, read-out: IZ
Escherichia coli [8] = experiment: Antibacterial activity against Escherichia coli MTCC 724 assessed as concentration required to completely destroy test microorganisms after 24 hrs; type: functional; conditions: MTCC 724, 24 h
Bacillus cereus [9] = experiment: Antibacterial activity against Bacillus cereus MTCC 8372 after 24 hrs by microdilution method; type: functional; conditions: MTCC 8372, 24 h
Aspergillus flavus [10] = experiment: Antifungal activity against Aspergillus flavus MTCC 873 assessed as concentration required to completely destroy test microorganisms after 24 hrs; type: functional; conditions: MTCC 873, 24 h
Aspergillus flavus [11] = experiment: Antifungal activity against Aspergillus flavus MTCC 873 at 100 ug/ml after 24 hrs by disc diffusion method; type: functional; conditions: MTCC 873, 24 h, read-out: IZ
Escherichia coli [12] = experiment: Antibacterial activity against Escherichia coli MTCC 724 at 100 ug/ml after 24 hrs by disc diffusion method; type: functional; conditions: MTCC 724, 24 h, read-out: IZ
Bacillus cereus [13] = experiment: Antibacterial activity against Bacillus cereus MTCC 8372 at 50 ug/ml after 24 hrs by disc diffusion method; type: functional; conditions: MTCC 8372, 24 h, read-out: IZ
Klebsiella pneumoniae [14] = experiment: Antibacterial activity against Klebsiella pneumoniae MTCC 3384 after 24 hrs by microdilution method; type: functional; conditions: MTCC 3384, 24 h
Escherichia coli [15] = experiment: Antibacterial activity against Escherichia coli MTCC 724 after 24 hrs by microdilution method; type: functional; conditions: MTCC 724, 24 h
Aspergillus flavus [16] = experiment: Antifungal activity against Aspergillus flavus MTCC 873 after 48 hrs by microdilution method; type: functional; conditions: MTCC 873, 48 h
Bacillus cereus [17] = experiment: Antibacterial activity against Bacillus cereus MTCC 8372 assessed as concentration required to completely destroy test microorganisms after 24 hrs; type: functional; conditions: MTCC 8372, 24 h
Staphylococcus aureus [18] = experiment: Antibacterial activity against Staphylococcus aureus MTCC 96 at 50 ug/ml after 24 hrs by disc diffusion method; type: functional; conditions: MTCC 96, 24 h, read-out: IZ
Bacillus cereus [19] = experiment: Antibacterial activity against Bacillus cereus MTCC 8372 at 100 ug/ml after 24 hrs by disc diffusion method; type: functional; conditions: MTCC 8372, 24 h, read-out: IZ
Aspergillus niger [20] = experiment: Antifungal activity against Aspergillus niger MTCC 281 assessed as concentration required to completely destroy test microorganisms after 24 hrs; type: functional; conditions: MTCC 281, 24 h
Aspergillus niger [21] = experiment: Antifungal activity against Aspergillus niger MTCC 281 after 48 hrs by microdilution method; type: functional; conditions: MTCC 281, 48 h
Aspergillus flavus [22] = experiment: Antifungal activity against Aspergillus flavus MTCC 873 at 50 ug/ml after 24 hrs by disc diffusion method; type: functional; conditions: MTCC 873, 24 h, read-out: IZ
Staphylococcus aureus [23] = experiment: Antibacterial activity against Staphylococcus aureus MTCC 96 at 100 ug/ml after 24 hrs by disc diffusion method; type: functional; conditions: MTCC 96, 24 h, read-out: IZ
Aspergillus niger [24] = experiment: Antifungal activity against Aspergillus niger MTCC 281 at 100 ug/ml after 24 hrs by disc diffusion method; type: functional; conditions: MTCC 281, 24 h, read-out: IZ
Escherichia coli [25] = experiment: Antibacterial activity against Escherichia coli MTCC 724 at 50 ug/ml after 24 hrs by disc diffusion method; type: functional; conditions: MTCC 724, 24 h, read-out: IZ

| SMILES | IC50 (Alpha amylase) | MBC (Staphylococcus aureus [1]) | zone of inhibition at 100 µg/mL (Klebsiella pneumoniae [2]) | MIC (Staphylococcus aureus [3]) | zone of inhibition at 50 µg/mL (Klebsiella pneumoniae [4]) | MBC (Klebsiella pneumoniae [5]) | IC50 [6] | zone of inhibition at 50 µg/mL (Aspergillus niger [7]) | MBC (Escherichia coli [8]) | MIC (Bacillus cereus [9]) | MFC (Aspergillus flavus [10]) | zone of inhibition at 100 µg/mL (Escherichia coli [12]) | zone of inhibition at 50 µg/mL (Bacillus cereus [13]) | MIC (Klebsiella pneumoniae [14]) | MIC (Escherichia coli [15]) | MBC (Bacillus cereus [17]) | zone of inhibition at 50 µg/mL (Staphylococcus aureus [18]) | zone of inhibition at 100 µg/mL (Bacillus cereus [19]) | zone of inhibition at 100 µg/mL (Staphylococcus aureus [23]) | zone of inhibition at 50 µg/mL (Escherichia coli [25]) | other results |
| --- | --- | --- | --- | --- | --- | --- | --- | --- | --- | --- | --- | --- | --- | --- | --- | --- | --- | --- | --- | --- | --- |
| CCOC(=O)c1c(-c2ccccc2)nn(-c2ccccc2)c1COCc1c(-c2ccc(F)cc2)nc(N(C)S(C)(=O)=O)nc1C(C)C | 15 mg/L (≈ 22.8 µM) | 190 mg/L (≈ 289 µM) | 10 mm | 40 mg/L (≈ 60.8 µM) | 8 mm | 240 mg/L (≈ 365 µM) | 25 mg/L (≈ 38 µM) | 10 mm | 280 mg/L (≈ 426 µM) | 15 mg/L (≈ 22.8 µM) | 300 mg/L (≈ 456 µM) | 10 mm | 8 mm | 30 mg/L (≈ 45.6 µM) | 35 mg/L (≈ 53.2 µM) | 150 mg/L (≈ 228 µM) | 6 mm | 20 mm | 19 mm | 3 mm | zone of inhibition at 100 µg/mL (Aspergillus flavus [11]): 6 mm; MIC (Aspergillus flavus [16]): 55 mg/L (≈ 83.6 µM); MFC (Aspergillus niger [20]): 280 mg/L (≈ 426 µM); MIC (Aspergillus niger [21]): 50 mg/L (≈ 76 µM); zone of inhibition at 50 µg/mL (Aspergillus flavus [22]): 12 mm; zone of inhibition at 100 µg/mL (Aspergillus niger [24]): 8 mm |
| CCOC(=O)c1c(-c2ccccc2)nn(-c2ccccc2)c1COc1ccc(C=O)cc1OC | 60 mg/L (≈ 131 µM) | 240 mg/L (≈ 526 µM) | 6 mm | 45 mg/L (≈ 98.6 µM) | 4 mm | 200 mg/L (≈ 438 µM) | 70 mg/L (≈ 153 µM) | 12 mm | 210 mg/L (≈ 460 µM) | 45 mg/L (≈ 98.6 µM) | 250 mg/L (≈ 548 µM) | 8 mm | 4 mm | 45 mg/L (≈ 98.6 µM) | 40 mg/L (≈ 87.6 µM) | 230 mg/L (≈ 504 µM) | 2 mm | 8 mm | 8 mm | 3 mm | zone of inhibition at 100 µg/mL (Aspergillus flavus [11]): 9 mm; MIC (Aspergillus flavus [16]): 40 mg/L (≈ 87.6 µM); MFC (Aspergillus niger [20]): 205 mg/L (≈ 449 µM); MIC (Aspergillus niger [21]): 40 mg/L (≈ 87.6 µM); zone of inhibition at 50 µg/mL (Aspergillus flavus [22]): 8 mm; zone of inhibition at 100 µg/mL (Aspergillus niger [24]): 10 mm |
| CCOC(=O)c1c(-c2ccccc2)nn(-c2ccccc2)c1Cn1c(Cl)nc2ccccc21 | 10 mg/L (≈ 21.9 µM) | 160 mg/L (≈ 350 µM) | 12 mm | 30 mg/L (≈ 65.7 µM) | 6 mm | 190 mg/L (≈ 416 µM) | 20 mg/L (≈ 43.8 µM) | 10 mm | 190 mg/L (≈ 416 µM) | 35 mg/L (≈ 76.6 µM) | 230 mg/L (≈ 503 µM) | 19 mm | 6 mm | 30 mg/L (≈ 65.7 µM) | 35 mg/L (≈ 76.6 µM) | 220 mg/L (≈ 481 µM) | 9 mm | 14 mm | 11 mm | 9 mm | zone of inhibition at 100 µg/mL (Aspergillus flavus [11]): 9 mm; MIC (Aspergillus flavus [16]): 30 mg/L (≈ 65.7 µM); MFC (Aspergillus niger [20]): 215 mg/L (≈ 471 µM); MIC (Aspergillus niger [21]): 25 mg/L (≈ 54.7 µM); zone of inhibition at 50 µg/mL (Aspergillus flavus [22]): 8 mm; zone of inhibition at 100 µg/mL (Aspergillus niger [24]): 10 mm |
| CCOC(=O)c1c(-c2ccccc2)nn(-c2ccccc2)c1Cn1c(S)nc2ccccc21 | 40 mg/L (≈ 88 µM) | 150 mg/L (≈ 330 µM) | 14 mm | 20 mg/L (≈ 44 µM) | 8 mm | 160 mg/L (≈ 352 µM) | 45 mg/L (≈ 99 µM) | 10 mm | 175 mg/L (≈ 385 µM) | 20 mg/L (≈ 44 µM) | 290 mg/L (≈ 638 µM) | 16 mm | 8 mm | 25 mg/L (≈ 55 µM) | 25 mg/L (≈ 55 µM) | 160 mg/L (≈ 352 µM) | 8 mm | 11 mm | 12 mm | 8 mm | zone of inhibition at 100 µg/mL (Aspergillus flavus [11]): 18 mm; MIC (Aspergillus flavus [16]): 50 mg/L (≈ 110 µM); MFC (Aspergillus niger [20]): 290 mg/L (≈ 638 µM); MIC (Aspergillus niger [21]): 40 mg/L (≈ 88 µM); zone of inhibition at 50 µg/mL (Aspergillus flavus [22]): 14 mm; zone of inhibition at 100 µg/mL (Aspergillus niger [24]): 16 mm |
| CN(C)[C@@H]1C(O)=C(C(N)=O)C(=O)[C@@]2(O)C(O)=C3C(=O)c4c(O)cccc4[C@@](C)(O)[C@H]3C[C@@H]12 [TETRACYCLINE] |  | 120 mg/L (≈ 270 µM) | 20 mm | 10 mg/L (≈ 22.5 µM) | 12 mm | 120 mg/L (≈ 270 µM) |  |  | 120 mg/L (≈ 270 µM) | 4 mg/L (≈ 9 µM) |  | 30 mm | 10 mm | 8 mg/L (≈ 18 µM) | 12 mg/L (≈ 27 µM) | 120 mg/L (≈ 270 µM) | 10 mm | 22 mm | 20 mm | 18 mm |  |
